Experiments:
[1] = test system: Mut^−/−; Tg^INS-MCK-Mut mice; conditions: mouse, in vivo; for Mut^+/− Oxidation Rate / Mut^−/− Oxidation Rate: ip
Experimental: To further assess transgene function, the in vivo oxidative capacity of Mut^−/−; Tg^INS-MCK-Mut mice was measured through detecting metabolism of numerous 1-^13C labeled fatty acids to ^13CO2 via the Kreb's Cycle.
The in vivo effects of hepatic Mut deficiency were also assessed by measuring the oxidation of 1-^13C-methionine (FIG. 1I) and 1-^13C-glycine (FIG. 1J). These labels reflect hepatic mitochondrial function and the activity of the glycine cleavage system, both known to be impaired in MMA patients.
In Vivo Stable Isotope Oxidation Studies: Stable isotope studies were performed in 4 Mut−/−; Tg^INS-MCK-Mut and 4 control littermates. Closed circuit, constant volume respiratory chambers were used to collect and measure enrichment of ^13CO2 in mice, as described previously (Chandler and Venditti, 2009 and 2010, Manoli et al 2013). Mice received IP injections with tracer amounts (10 μl/g of [10 mg/ml] tracer solution) of 99.9% ^13C-isotopomers. Aliquots of air were removed every 5-10 min, while CO2 was continuously monitored. ^13CO2 enrichment was measured by isotope ratio mass spectroscopy (Metabolic Solutions, Nashua, N.H.). […] Cumulative percentage of total isotopomer dose metabolized was subsequently calculated, using the formula: Percentage of dose metabolized=total ^13C excreted [mmol/dose (mmol)×100%].
The following 1-C labeled stable isotopes were used: ^13C Sodium Propionate, ^13C-Methionine, ^13C-Glycine, ^13C-Pyruvate, ^13C-Octanoate, ^13C-α-Ketoisocaproic Acid, ^13C-Leucine, ^13C-Acetate, ^13C-Phenylalanine. Stable isotopomers were purchased from Cambridge Isotope Laboratories. Variables were compared for each substrate and time point using a two-sided unpaired t-test and considered statistically significant at p<0.05.
These studies were conducted using N=5 mice with MMA (Mut^−/−; Tg^INS-MCK-Mut mutants) and N=5 sex matched littermates (controls). Each mouse was injected with the labels depicted in Table 3 and the oxidation rates and kinetics of ^13C/^12C CO2 enrichment were analyzed.

[2] = test system: methylmalonic acidemia patients and healthy volunteers; conditions: human, in vivo
Source text: Percent Dose Oxidized at each time point=CO2 production rate×Σ(APE (t)/(mmol C^13 administered)×100, where CO2 production rate was the one measured by the indirect calorimetry on the same day just prior to the isotope study.
The test cohort was comprised of 41 patients with MMA (26 mut0, aged 3-37 years, 6 mut-, aged 9-30 years, and 9 cblA, aged 4-41 years), 8 healthy volunteers, and 8 heterozygote parents of affected individuals. Within the affected group, 12 individuals had previously received a liver (LT), kidney (KT), combined liver-kidney (LKT), or partial (graft) liver-kidney (pLKT) transplant (2 LT, 3 KT, 6 LKT, 1 pLKT).
A metabolic cart (ParvoMedics TrueOne2400 Sandy, Utah) was used to measure subject O2 consumption (VO2), CO2 production (VCO2), and resting energy expenditure (REE) at supine posture for 25-35 minutes. Seven of the healthy volunteers were tested three times over a two-month period to evaluate inter- and intra-individual variability.
A dose of 0.5 mg/kg (or 0.5 ml/kg) body weight (BW) was administered to the study subjects orally or through a G-tube as a bolus over no more than 2 minutes, followed by similar amount of water consumption. […] Measurements of the isotopic ratio (^13C/^12C) in expired gas were determined by isotope ratio mass spectrometry (Metabolic Solutions, Nashua, N.H.).

[3] = Test drink solution stability; assay type: physicochemical; conditions: 1 mg/ml in tap water

Cumulative % of total dose metabolized, Controls, mean (SD) [1]	Cumulative % of total dose metabolized, Mutants, mean (SD) [1]	Mut^+/− Oxidation Rate [1]	Mut^−/− Oxidation Rate [1]	SMILES	also measured
38.02 (11.79) %	42.23 (14.32) %	69.5 +/− 17.7 (n = 5) μmol/g/hour	88.2 +/− 26.5 (n = 5) μmol/g/hour	C[13C](=O)[O-].[Na+] [1-^13C-acetate, Sodium 1-^13C-Acetate]	–
–	–	0.14 +/− 0.003 (n = 3) μmol/g/hour	0.07 +/− 0.007 (n = 4) μmol/g/hour	NC[13C](=O)O [1-^13C-glycine]	oxidation of label (release of label) [1]: impaired ability to release label
–	–	11.5 +/− 3.4 (n = 4) μmol/g/hour	6.5 +/− 2.5 (n = 4) μmol/g/hour	CSCC[C@H](N)[13C](=O)O [1-^13C-methionine]	oxidation of label (release of label) [1]: impaired ability to release label
–	–	–	–	CCC(=O)O [1-^13C-propionate, sodium 1-^13C-propionate]	time within which the majority of the label is oxidized [2]: 15 to 30 min; maximal time for maintaining solution stability [3]: two
4.41 (2.63) %	5.15 (2.19) %	–	–	CC(C)[13C@H](N)C(=O)O [2-^13C-Valine]	–
13.54 (1.50) %	12.44 (3.10) %	–	–	CC(C)C[C@H](N)[13C](=O)O [L-1-^13C-Leucine]	–
10.75 (7.38) %	5.71 (2.74) %	–	–	N[C@@H](C[13c]1ccccc1)C(=O)O [L-1-^13C-Phenylalanine]	–
3.68 (2.34) %	3.32 (0.85) %	–	–	CC(C)C[13C@H](N)C(=O)O [L-2-^13C-Leucine]	–
52.16 (17.06) %	52.99 (9.85) %	–	–	C[13C](=O)C(=O)O [Sodium 1-^13C-Pyruvate]	–
33.95 (3.66) %	24.00 (12.95) %	–	–	CC(C)CC(=O)[13C](=O)[O-].[Na+] [Sodium 1-^13C-α-Ketoisocaproic Acid]	–

Reference: patent US20200345268A1, “ISOTOPIC BIOMARKERS OF ORGANIC ACIDEMIAS” (The United States of America, as represented by the …, priority 2017, published 2020)
